Laboratory results published in ChEMBL document CHEMBL6127041, “Dual-target inhibitors based on acetylcholinesterase: Novel agents for Alzheimer's disease” (Eur J Med Chem, 2024).

Assays:
Acetylcholinesterase [1] = molecular target: T1, Acetylcholinesterase (Homo sapiens, UniProt P22303); experiment: Inhibition of AChE (unknown origin)
[2] = molecular target: High affinity cGMP-specific 3',5'-cyclic phosphodiesterase 9A (Homo sapiens, UniProt O76083); experiment: Inhibition of PDE9A (unknown origin)
Sequence of High affinity cGMP-specific 3',5'-cyclic phosphodiesterase 9A (O76083 whole entry): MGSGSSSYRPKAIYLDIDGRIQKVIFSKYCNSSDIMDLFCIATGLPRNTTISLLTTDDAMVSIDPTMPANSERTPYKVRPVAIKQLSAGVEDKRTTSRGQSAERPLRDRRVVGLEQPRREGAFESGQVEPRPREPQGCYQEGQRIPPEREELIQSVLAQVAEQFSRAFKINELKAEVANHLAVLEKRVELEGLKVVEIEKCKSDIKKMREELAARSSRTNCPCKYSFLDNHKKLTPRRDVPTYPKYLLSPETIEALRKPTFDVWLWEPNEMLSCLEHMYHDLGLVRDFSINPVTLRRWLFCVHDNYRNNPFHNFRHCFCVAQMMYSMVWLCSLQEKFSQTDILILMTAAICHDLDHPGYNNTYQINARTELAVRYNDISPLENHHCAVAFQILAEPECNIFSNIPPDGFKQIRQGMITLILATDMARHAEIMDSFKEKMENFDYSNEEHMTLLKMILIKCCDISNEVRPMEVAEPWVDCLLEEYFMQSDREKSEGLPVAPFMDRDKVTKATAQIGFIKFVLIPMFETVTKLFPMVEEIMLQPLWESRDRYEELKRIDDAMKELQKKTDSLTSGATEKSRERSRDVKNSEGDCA

Cholinesterase = Cholinesterase (Homo sapiens, UniProt P06276); experiment: Inhibition of BChE (unknown origin)
Sequence of Cholinesterase (P06276 whole entry): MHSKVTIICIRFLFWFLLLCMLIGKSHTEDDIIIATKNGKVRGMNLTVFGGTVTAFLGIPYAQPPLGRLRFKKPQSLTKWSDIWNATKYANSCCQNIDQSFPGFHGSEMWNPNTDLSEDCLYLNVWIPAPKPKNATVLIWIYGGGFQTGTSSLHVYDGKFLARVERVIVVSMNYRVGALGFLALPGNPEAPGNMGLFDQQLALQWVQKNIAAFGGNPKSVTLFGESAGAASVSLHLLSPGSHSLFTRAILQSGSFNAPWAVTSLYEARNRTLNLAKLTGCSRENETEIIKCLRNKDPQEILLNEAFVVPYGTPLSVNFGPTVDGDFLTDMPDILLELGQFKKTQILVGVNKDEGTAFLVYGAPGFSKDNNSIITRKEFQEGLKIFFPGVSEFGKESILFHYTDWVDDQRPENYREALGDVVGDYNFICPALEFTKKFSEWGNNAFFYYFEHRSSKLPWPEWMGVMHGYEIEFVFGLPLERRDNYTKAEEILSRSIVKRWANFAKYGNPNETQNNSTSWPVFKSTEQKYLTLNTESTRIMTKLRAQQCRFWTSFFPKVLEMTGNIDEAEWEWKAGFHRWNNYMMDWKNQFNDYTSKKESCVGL

Acetylcholinesterase [3] = molecular target: T1, Acetylcholinesterase; experiment: Inhibition of AChE (unknown origin) by Ellman's method
[4] = molecular target: cGMP-specific 3',5'-cyclic phosphodiesterase (Homo sapiens, UniProt O76074); experiment: Inhibition of PDE5A (unknown origin) using […] as substrate measured after 1 hr by fluorescence polarization assay
Acetylcholinesterase [5] = molecular target: Acetylcholinesterase (Electrophorus electricus, UniProt O42275); experiment: Inhibition of electric eel AChE
Sequence of Acetylcholinesterase (Electrophorus electricus, UniProt O42275) (O42275 whole entry): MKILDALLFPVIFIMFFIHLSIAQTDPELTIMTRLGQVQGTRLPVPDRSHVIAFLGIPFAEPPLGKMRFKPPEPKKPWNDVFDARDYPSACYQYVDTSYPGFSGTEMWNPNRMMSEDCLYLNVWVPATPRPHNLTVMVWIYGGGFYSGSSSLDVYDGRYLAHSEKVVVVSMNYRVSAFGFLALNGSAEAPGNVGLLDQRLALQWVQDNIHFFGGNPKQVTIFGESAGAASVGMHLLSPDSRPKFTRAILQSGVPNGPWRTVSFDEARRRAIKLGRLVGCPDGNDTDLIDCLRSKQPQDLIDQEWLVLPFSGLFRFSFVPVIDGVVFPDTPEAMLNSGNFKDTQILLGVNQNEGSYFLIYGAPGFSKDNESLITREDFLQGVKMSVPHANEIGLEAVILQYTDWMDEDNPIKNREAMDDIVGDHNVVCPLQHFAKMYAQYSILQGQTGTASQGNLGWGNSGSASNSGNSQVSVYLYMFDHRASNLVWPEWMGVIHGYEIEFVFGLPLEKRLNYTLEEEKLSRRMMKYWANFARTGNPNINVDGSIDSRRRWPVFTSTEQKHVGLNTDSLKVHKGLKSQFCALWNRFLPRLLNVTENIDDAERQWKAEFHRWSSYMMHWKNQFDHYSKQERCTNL

SH-SY5Y = experiment: Cytotoxicity against human SH-SY5Y cells assessed as reduction in cell viability at 10 uM measured after 24 hrs by MTT assay relative to control; format: functional
Acetylcholinesterase [6] = molecular target: T1, Acetylcholinesterase
Beta-secretase 1 = Beta-secretase 1 (Homo sapiens, UniProt P56817); experiment: Inhibition of human BACE-1 by FRET assay
Sequence of Beta-secretase 1 (P56817 whole entry): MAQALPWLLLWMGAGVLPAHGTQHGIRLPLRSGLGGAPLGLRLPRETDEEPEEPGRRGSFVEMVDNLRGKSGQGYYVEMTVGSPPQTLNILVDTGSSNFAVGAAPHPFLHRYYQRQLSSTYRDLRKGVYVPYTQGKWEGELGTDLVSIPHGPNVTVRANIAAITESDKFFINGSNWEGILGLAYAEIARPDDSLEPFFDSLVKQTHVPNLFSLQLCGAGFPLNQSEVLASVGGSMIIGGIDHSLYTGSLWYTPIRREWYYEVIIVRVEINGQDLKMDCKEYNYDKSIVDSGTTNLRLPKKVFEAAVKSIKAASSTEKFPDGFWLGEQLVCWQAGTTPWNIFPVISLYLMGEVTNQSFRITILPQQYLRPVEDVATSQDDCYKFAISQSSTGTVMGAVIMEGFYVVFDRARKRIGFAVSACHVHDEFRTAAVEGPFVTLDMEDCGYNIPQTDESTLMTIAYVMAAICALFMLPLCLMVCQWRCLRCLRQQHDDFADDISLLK

T1 sequence (P22303 whole entry): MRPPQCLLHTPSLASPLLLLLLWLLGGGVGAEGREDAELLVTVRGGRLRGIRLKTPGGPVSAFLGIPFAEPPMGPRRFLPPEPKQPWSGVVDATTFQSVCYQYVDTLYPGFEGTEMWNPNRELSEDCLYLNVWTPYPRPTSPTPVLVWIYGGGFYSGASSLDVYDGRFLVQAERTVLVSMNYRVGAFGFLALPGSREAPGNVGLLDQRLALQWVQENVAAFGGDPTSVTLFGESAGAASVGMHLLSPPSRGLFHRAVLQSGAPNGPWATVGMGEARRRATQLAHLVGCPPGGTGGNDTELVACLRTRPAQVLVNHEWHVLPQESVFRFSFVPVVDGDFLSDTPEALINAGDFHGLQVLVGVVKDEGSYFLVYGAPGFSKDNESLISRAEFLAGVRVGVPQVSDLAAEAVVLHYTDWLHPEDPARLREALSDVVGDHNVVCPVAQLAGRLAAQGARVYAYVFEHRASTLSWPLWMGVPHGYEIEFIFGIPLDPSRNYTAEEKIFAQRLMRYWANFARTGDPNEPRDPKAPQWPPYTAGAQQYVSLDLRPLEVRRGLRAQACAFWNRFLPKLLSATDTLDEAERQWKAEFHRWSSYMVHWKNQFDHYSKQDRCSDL

Work on `O=c1[nH]c(CNCCC2CCN(Cc3ccccc3)CC2)nc2c1cnn2C1CCCC1` yielded an IC50 (Acetylcholinesterase [1]) of 290 nM, an IC50 [2] of 380 nM and an IC50 (Cholinesterase) of 5800 nM.
Work on `O=C1[C@H]2Cc3c([nH]c4ccccc34)[C@@H](c3ccc4c(c3)OCO4)N2C(=O)CN1CCC1CCN(Cc2ccccc2)CC1` yielded an IC50 (Acetylcholinesterase [3]) of 30 nM and an IC50 [4] of 150 nM.
Molecule `O=C1c2c(O)cc(OCCCCCN3CCCCC3)cc2OC2C=CC=CC12` (centres undefined) has an IC50 (Acetylcholinesterase [5]) of 469 nM.
`c1ccc2oc(CNCCCCCCCNc3c4c(cc5ccccc35)CCCC4)cc2c1` was tested, and the Activity (SH-SY5Y) was 63%, the IC50 (Acetylcholinesterase [6]) was 0.86 nM and the IC50 (Beta-secretase 1) was 1350 nM.
